Source: patent US20230257385A1, “SALT AND SOLID FORMS OF TABERNANTHALOG” (priority 2021, published 2023)
Counter-ions that a name gives are not always drawn.

Legend:
[1] = DVS analyses of sorbate salt Form A / Form C (Example 10); type: physicochemical
Excerpt: DVS analyses of Form A (Performed on batch reference: Experiment 11-Sample -A1) To determine whether Form A underwent form change at high % RH, DVS residues of Form A, from 0 to 80% RH and 0 to 90% RH, were examined. The specimens were equilibrated to constant mass, at 80% and 90% RH set-points, removed, placed in a capped vial, and analysed by XRPD and DSC. Based on the SC-XRD at 100 K, no regular voids in the crystal structure were large enough to accommodate non-crystal-bonded, molecular water with minimum probe radius of 1.4 Å.
The moisture sorption properties of the feed API were analysed by DVS Intrinsic instrument (Surface Measurement System). Approximately 20 to 50 mg of API was weighed onto an aluminium pan and loaded into the instrument equilibrated at 25° C. The sample was equilibrated under a dry atmosphere (0% relative humidity) for 60 minutes, before increasing the humidity from 0% to 30% at 5% step increment and from 30% to 90% at 10% step increment. A desorption cycle was also applied from 90% to 30% (10% step decrement) and from 30% to 0% (5% step decrement). A rate of change in mass per time unit (dm/dt) of 0.002%/min was set as the equilibrium parameter. Kinetic and isotherm graphs were calculated.
5. DVS Analyses: 0% to 90% DVS Mass Per Unit Time Equilibrated at Dm/Dt (0.0002%/Min)

[2] = Equilibrium humidity evaluation 75% RH/40° C., 10 days (Example 8, Experiment 6); type: physicochemical; details: for change in chemical purity (trended HPLC): after 10 days; for powder diffraction pattern versus input (form stability): t=5 days and t=10 days
How it was run: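 Tabernanthalog salt powders (100 mg) were spread evenly in open vials and held at 40 °C and 75% RH. Sub-samples taken at 5 and 10 days were analysed by ^1H NMR, HPLC, XRPD, DSC, TGA and PLM for phase change, chemical degradation and residual solvent.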

[3] = 75% RH/40° C., listed as Tabernanthalog sorbate salt (Form A)

SMILES: COc1ccc2c3c([nH]c2c1)CCN(C)CC3 [tabernanthalog sorbate salt]
- DVS isotherm ([1]; 0% to 90% DVS, mass per unit time equilibrated at dm/dt (0.0002%/min)): slightly hygroscopic up to 80% RH
- DVS 0 to 90 to 0% RH (dm/dt <0.002%) ([1]; RH 0.0, falling leg (90 to 0)): 0.0 (0.06%)
- DVS 0 to 90 to 0% RH (dm/dt <0.002%) ([1]; RH 0.0, rising leg (0 to 90)): DVS 0 to 90 to 0% RH (dm/dt <0.002%): 0.0 (0.00%),
- DVS 0 to 90 to 0% RH (dm/dt <0.002%) ([1]; RH 5.0, falling leg (90 to 0)): 0.05%
- DVS 0 to 90 to 0% RH (dm/dt <0.002%) ([1]; RH 5.0, rising leg (0 to 90)): 0.0%
- DVS 0 to 90 to 0% RH (dm/dt <0.002%) ([1]; RH 10.0, falling leg (90 to 0)): 0.04%
- DVS 0 to 90 to 0% RH (dm/dt <0.002%) ([1]; RH 10.0, rising leg (0 to 90)): 0.01%
- DVS 0 to 90 to 0% RH (dm/dt <0.002%) ([1]; RH 15.0, falling leg (90 to 0)): 0.03%
- DVS 0 to 90 to 0% RH (dm/dt <0.002%) ([1]; RH 15.0, rising leg (0 to 90)): 0.01%
- DVS 0 to 90 to 0% RH (dm/dt <0.002%) ([1]; RH 20.0, falling leg (90 to 0)): 0.02%
- DVS 0 to 90 to 0% RH (dm/dt <0.002%) ([1]; RH 20.0, rising leg (0 to 90)): 0.02%
- DVS 0 to 90 to 0% RH (dm/dt <0.002%) ([1]; RH 25.0, falling leg (90 to 0)): 0.00%
- DVS 0 to 90 to 0% RH (dm/dt <0.002%) ([1]; RH 25.0, rising leg (0 to 90)): 0.03%
- DVS 0 to 90 to 0% RH (dm/dt <0.002%) ([1]; RH 30.0, falling leg (90 to 0)): 0.00%
- DVS 0 to 90 to 0% RH (dm/dt <0.002%) ([1]; RH 30.0, rising leg (0 to 90)): 0.03%
- DVS 0 to 90 to 0% RH (dm/dt <0.002%) ([1]; RH 40.0, falling leg (90 to 0)): 0.03%
- DVS 0 to 90 to 0% RH (dm/dt <0.002%) ([1]; RH 40.0, rising leg (0 to 90)): 0.05%
- DVS 0 to 90 to 0% RH (dm/dt <0.002%) ([1]; RH 50.0, falling leg (90 to 0)): 0.06%
- DVS 0 to 90 to 0% RH (dm/dt <0.002%) ([1]; RH 50.0, rising leg (0 to 90)): 0.07%
- DVS 0 to 90 to 0% RH (dm/dt <0.002%) ([1]; RH 60.0, falling leg (90 to 0)): 0.18%
- DVS 0 to 90 to 0% RH (dm/dt <0.002%) ([1]; RH 60.0, rising leg (0 to 90)): 0.10%
- DVS 0 to 90 to 0% RH (dm/dt <0.002%) ([1]; RH 70.0, falling leg (90 to 0)): 0.30%
- DVS 0 to 90 to 0% RH (dm/dt <0.002%) ([1]; RH 70.0, rising leg (0 to 90)): 0.14%
- DVS 0 to 90 to 0% RH (dm/dt <0.002%) ([1]; RH 80.0, falling leg (90 to 0)): 0.48%
- DVS 0 to 90 to 0% RH (dm/dt <0.002%) ([1]; RH 80.0, rising leg (0 to 90)): 0.21%
- DVS 0 to 90 to 0% RH (dm/dt <0.002%) ([1]; RH 90.0, falling leg (90 to 0)): 0.98%
- DVS 0 to 90 to 0% RH (dm/dt <0.002%) ([1]; RH 90.0, rising leg (0 to 90)): 0.98%
- form of specimens retrieved post DVS (XRPD) ([1]; at 0%, 80% and 90% RH): consistent with Form A
- water affinity ([1]; up to 90% RH (DVS)): ca. 1 % w/w
- CP (chemical purity) after storage ([2]; 75% RH at 40° C., 10 days): 99.70 % area
- change in chemical purity (trended HPLC) ([2]; 75% RH/40° C.): did not reduce significantly
- change in chemical purity (trended HPLC) [2, 3]: lowest decrease in chemical purity
- change in chemical purity (trended HPLC) ([2]; 75% RH/40° C., listed as tabernanthalog sorbate): lowest decrease in chemical purity
- water uptake / hydrate formation (TGA, DSC) ([2]; 75% RH/40° C., t=5 d and t=10 d): did not exhibit any water absorption events
- powder diffraction pattern versus input (form stability) ([2]; 75% RH/40° C.): matched the diffractogram of the input material
- powder diffraction pattern versus input (form stability) [2, 3]: Form A was stable
- Tabernanthalog RRT = 1.00 (trended HPLC data, chemical purity) ([2]; Sorbate salt, input before humidity exposure): 99.76
- CP (chemical purity) before storage ([2]; input of 6-D): 99.76 % area
